Data reported in article PMC9814838, “The orphan nuclear receptor Nurr1 is responsive to non-steroidal anti-inflammatory drugs” (Communications Chemistry, 2020).
“Also recorded” adds a separate entry of the source. No end group written: not given here. fluorescein = fluorescein label on the N-terminus

How the values were obtained:
Nurr1 = biological target: T1, Nurr1 (Homo sapiens, UniProt P43354); assay: Gal4-Nurr1 hybrid reporter gene assay in HEK293T cells; assay type: cell-based; settings: for Nurr1 activity 10μM (mean fold activation) / Nurr1 activity 30μM (mean fold activation): primary screen, n ≥ 2, ^# not significant vs VP16 control
T1 construct: Nurr1 (uniprot entry: hNURR1–P43354, residues 360–598); expressed in transfected cells; host or cells: HEK293T

NBRE: Nurr1 monomer = biological target: T2, NBRE: Nurr1 monomer (Homo sapiens, UniProt P43354); assay: Full-length Nurr1 reporter gene assay on NBRE response element; assay type: cell-based; settings: full-length human Nurr1; HEK293T; mean ± SD
T2 construct: the activity of full-length human Nurr1 in cellular settings; host or cells: HEK293T

NurRE: Nurr1 homodimer = biological target: T3, NurRE: Nurr1 homodimer (Homo sapiens, UniProt P43354); assay: Full-length Nurr1 reporter gene assay on NurRE response element; assay type: cell-based; settings: full-length human Nurr1; HEK293T; mean ± SD
T3 construct: the activity of full-length human Nurr1 in cellular settings; host or cells: HEK293T

[1] = biological target: T4, DR5: Nurr1–RXRα heterodimer (Homo sapiens, UniProt P43354); assay: Full-length Nurr1 reporter gene assay on DR5 response element; assay type: cell-based; settings: full-length human Nurr1 and RXRα overexpressed; HEK293T; mean ± SD
T4 construct: the activity of full-length human Nurr1 in cellular settings; host or cells: HEK293T

Nurr1 LBD homodimer = biological target: T5, Nurr1 LBD homodimer (Homo sapiens, UniProt P43354); assay: Nurr1 homodimerization HTRF (GFP-Nurr1 LBD vs Tb-labeled Nurr1 LBD); assay type: biochemical; settings: cell-free; ligand 100 µM
T5 construct: Nurr1 (uniprot entry: P43354-1, residues 364–598); MBP-Asn10 linker (N, cleaved yes); His8-Tag (N, cleaved yes); His10-Tag (N, cleaved yes); made in house; host or cells: E. coli T7 express (with pGro7)
Description: Strength and modulation of the formation of the heterodimer composed of the LBDs of Nurr1 and RXRα was investigated by titration of GFP-RXRα LBD against a fixed concentration of Nurr1 LBD. Assay solutions were prepared in HTRF assay buffer supplemented with 0.1% (w/v) CHAPS as well as 1% DMSO with test compounds at 100 µM or DMSO alone as negative control. […] Free GFP was added to keep the total GFP content stable at 4 µM throughout the entire series in order to suppress artefacts from changes in degree of diffusion enhanced FRET. Samples were equilibrated at RT for 2 h before FI520 and FI620 were recorded after excitation at 340 nm, and the HTRF signal was calculated as described above.

Nurr1–NCoR-1 interaction = biological target: T6, Nurr1–NCoR-1 interaction (Homo sapiens, UniProt P43354); assay: Nurr1–NCoR-1 interaction HTRF (GFP-Nurr1 LBD titrated against Tb-labeled NCoR-1); assay type: biochemical; settings: cell-free; ligand fixed at 100 µM
T6 construct: Nurr1 (uniprot entry: P43354-1, residues 364–598); His10-Tag (N, cleaved yes); made in house; host or cells: E. coli T7 express (with pGro7)
Description: Since ligand concentration was fixed in this setting, interference with the HTRF system is less prone to generate potential artifacts.
To maintain a constant GFP concentration, free GFP protein was added to the dilution series. The experiments were performed in HTRF assay buffer (150 mM KF, 25 mM HEPES pH 7.5 (KOH), 5% (w/v) Glycerol, supplemented with 0.1% (w/v) CHAPS and 5 mM DTT) with 1% DMSO in an assay volume of 20 µl. After 1 h incubation at RT, fluorescence intensities after excitation at 340 nm were recorded at 520 nm for GFP acceptor fluorescence and 620 nm for Tb-SA donor fluorescence and the HTRF signal was calculated as described above.

Nur77 = biological target: T7, Nur77 (Homo sapiens, UniProt P22736); assay: Gal4-Nur77 hybrid reporter gene assay in HEK293T cells; assay type: cell-based; settings: primary screen, n ≥ 2, ^# not significant vs VP16 control
T7 construct: Nur77 (uniprot entry: hNUR77–P22736, residues 358–598); expressed in transfected cells; host or cells: HEK293T

NOR1 = biological target: T8, NOR1 (Homo sapiens, UniProt Q92570); assay: Gal4-NOR1 hybrid reporter gene assay in HEK293T cells; assay type: cell-based; settings: primary screen, n ≥ 2, ^# not significant vs VP16 control
T8 construct: NOR1 (isoform alpha; uniprot entry: hNOR1–Q92570-1, residues 393–626); expressed in transfected cells; host or cells: HEK293T
T8 sequence (Q92570 393-626): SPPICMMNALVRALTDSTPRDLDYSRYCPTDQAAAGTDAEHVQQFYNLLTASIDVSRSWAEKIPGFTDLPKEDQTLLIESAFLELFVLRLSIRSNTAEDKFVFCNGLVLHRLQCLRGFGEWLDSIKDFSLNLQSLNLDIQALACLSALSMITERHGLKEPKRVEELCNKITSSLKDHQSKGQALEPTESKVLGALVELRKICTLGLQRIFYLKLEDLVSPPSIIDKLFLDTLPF

Gal4-VP16 = biological target: T9, Gal4-VP16 (Human herpesvirus 1, UniProt P06492); assay type: cell-based; settings: n ≥ 4
T9 construct: host or cells: HEK293T

[2] = biological target: T10, biotinylated recombinant Nurr1 LBD (Tb-labeled through Tb-cryptate streptavidin) (human, UniProt P43354-1 364-598, biotin on the lysine residue in the Avi-Tag); assay: AlphaScreen or HTRF; co-regulator recruitment: biotinylated Nurr1 LBD 3 nM on Tb-SA 3 nM (donor), fluorescein-labeled peptide 100 nM (acceptor); HTRF assay buffer (25 mM HEPES pH 7.5, 150 mM KF, 10% glycerol, 5 mM DTT) with 0.1% CHAPS; 1% DMSO alone or with AQ, CQ, MFA, parecoxib or oxaprozin at 100 µM (dose-response too); 2 h at RT; settings: both partners purified
T10 construct: In the assays coupled to terbium cryptate streptavidin conjugate (Tb-SA) as FRET donor; also called Tb-labeled Nurr1 LBD; Tb-cryptate-labeled Nurr1 LBD; source: E. coli T7 express with pGro7, purified (IMAC, TEV cleavage, amylose resin, birA biotinylation, monomeric avidin, SEC); not shown: MBP, N-terminal, cleaved; His8, N-terminal, cleaved; Avi-Tag, N-terminal, kept

T1 sequence (P43354 360-598): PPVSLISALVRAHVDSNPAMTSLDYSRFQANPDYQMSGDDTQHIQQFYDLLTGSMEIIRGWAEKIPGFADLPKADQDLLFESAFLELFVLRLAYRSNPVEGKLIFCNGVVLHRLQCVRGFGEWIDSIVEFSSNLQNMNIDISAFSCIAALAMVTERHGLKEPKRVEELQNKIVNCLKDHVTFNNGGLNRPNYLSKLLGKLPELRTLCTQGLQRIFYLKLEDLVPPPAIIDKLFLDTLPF
T7 sequence (P22736 358-598): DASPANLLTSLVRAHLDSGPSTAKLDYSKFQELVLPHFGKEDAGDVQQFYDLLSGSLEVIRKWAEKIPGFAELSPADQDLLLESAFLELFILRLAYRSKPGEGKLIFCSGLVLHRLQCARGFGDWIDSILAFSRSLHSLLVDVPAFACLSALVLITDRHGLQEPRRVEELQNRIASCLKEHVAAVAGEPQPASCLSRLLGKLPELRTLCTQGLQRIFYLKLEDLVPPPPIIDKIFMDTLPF
T6 sequence (P43354 364-598): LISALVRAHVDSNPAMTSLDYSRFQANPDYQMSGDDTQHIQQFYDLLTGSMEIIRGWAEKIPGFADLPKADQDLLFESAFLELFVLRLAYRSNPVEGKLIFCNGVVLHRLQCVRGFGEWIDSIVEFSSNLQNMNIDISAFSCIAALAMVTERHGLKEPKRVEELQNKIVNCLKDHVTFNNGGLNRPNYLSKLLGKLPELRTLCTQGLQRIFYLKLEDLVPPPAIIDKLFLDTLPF
T5 sequence (P43354 364-598): as above
T2 sequence (P43354 whole entry): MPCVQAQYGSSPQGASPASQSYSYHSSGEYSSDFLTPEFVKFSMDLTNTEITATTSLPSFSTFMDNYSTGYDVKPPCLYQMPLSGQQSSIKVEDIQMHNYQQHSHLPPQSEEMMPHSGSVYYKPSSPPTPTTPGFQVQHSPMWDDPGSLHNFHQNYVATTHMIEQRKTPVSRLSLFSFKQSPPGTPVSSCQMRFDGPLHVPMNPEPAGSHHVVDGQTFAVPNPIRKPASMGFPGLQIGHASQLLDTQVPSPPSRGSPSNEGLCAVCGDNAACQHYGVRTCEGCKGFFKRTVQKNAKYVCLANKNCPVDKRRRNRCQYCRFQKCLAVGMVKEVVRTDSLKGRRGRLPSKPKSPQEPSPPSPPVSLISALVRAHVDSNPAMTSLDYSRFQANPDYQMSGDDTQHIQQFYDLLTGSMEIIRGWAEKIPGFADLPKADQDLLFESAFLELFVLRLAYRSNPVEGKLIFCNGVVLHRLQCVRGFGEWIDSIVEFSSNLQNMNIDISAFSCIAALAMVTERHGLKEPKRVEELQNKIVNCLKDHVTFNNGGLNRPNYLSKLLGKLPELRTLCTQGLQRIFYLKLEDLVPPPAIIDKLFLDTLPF
T4 sequence (P43354 whole entry, one chain of several): as the sequence (P43354 whole entry) above
T3 sequence (P43354 whole entry): as above

## CCN(CC)CCCC(C)Nc1ccnc2cc(Cl)ccc12 (stereo not shown) [CQ, chloroquine]
Nurr1; HEK293T, mean ± SD, n≥3
  EC50: 47 µM
NBRE: Nurr1 monomer
  EC50: 38 µM
NurRE: Nurr1 homodimer
  EC50: 54 µM
[1]
  EC50: 57 µM
Nurr1 LBD homodimer
  Homodimerization (effect of ligand): promoted homodimerization; also recorded: Promotes dimerization
Nurr1–NCoR-1 interaction
  NCoR-1 affinity (effect of ligand): promoted the Nurr1–NCoR-1 interaction; also recorded: Enhances affinity

## COc1ccc2cc([C@H](C)C(=O)O)ccc2c1 [naproxen]
Nurr1
  Nurr1 activity 10μM (mean fold activation): 1.14 fold
  Nurr1 activity 30μM (mean fold activation): 1.15 fold
Nur77
  Nur77 activity 10μM (mean fold activation): 0.99 fold
  Nur77 activity 30μM (mean fold activation): 1.07 fold
NOR1
  Nor1 activity 10μM (mean fold activation): 1.09 fold
  Nor1 activity 30μM (mean fold activation): 1.09 fold

## NC(=O)Cc1cccc(C(=O)c2ccccc2)c1N [nepafenac]
Nurr1
  Nurr1 activity 10μM (mean fold activation): 1.02 fold
  Nurr1 activity 30μM (mean fold activation): 0.92 fold
Nur77
  Nur77 activity 10μM (mean fold activation): 0.98 fold
  Nur77 activity 30μM (mean fold activation): 0.97 fold
NOR1
  Nor1 activity 10μM (mean fold activation): 1.09 fold
  Nor1 activity 30μM (mean fold activation): 1.23 fold

## CS(=O)(=O)Nc1ccc([N+](=O)[O-])cc1Oc1ccccc1 [nimesulid]
Nurr1
  Nurr1 activity 10μM (mean fold activation): 1.00 fold
  Nurr1 activity 30μM (mean fold activation): 0.89 fold
Nur77
  Nur77 activity 10μM (mean fold activation): 0.90 fold
  Nur77 activity 30μM (mean fold activation): toxic
NOR1
  Nor1 activity 10μM (mean fold activation): 0.91 fold
  Nor1 activity 30μM (mean fold activation): 0.84 fold

## CCCCC1C(=O)N(c2ccccc2)N(c2ccccc2)C1=O [phenylbutazone]
Nurr1
  Nurr1 activity 10μM (mean fold activation): 0.94 fold
  Nurr1 activity 30μM (mean fold activation): 1.04 fold
Nur77
  Nur77 activity 10μM (mean fold activation): 0.83 fold
  Nur77 activity 30μM (mean fold activation): 0.81 fold
NOR1
  Nor1 activity 10μM (mean fold activation): 0.94 fold
  Nor1 activity 30μM (mean fold activation): 1.02 fold

## CN1C(C(=O)Nc2ccccn2)=C(O)c2ccccc2S1(=O)=O [piroxicam]
Nurr1
  Nurr1 activity 10μM (mean fold activation): 0.98 fold
  Nurr1 activity 30μM (mean fold activation): 0.98 fold
Nur77
  Nur77 activity 10μM (mean fold activation): 1.03 fold
  Nur77 activity 30μM (mean fold activation): 0.92 fold
NOR1
  Nor1 activity 10μM (mean fold activation): 1.05 fold
  Nor1 activity 30μM (mean fold activation): 1.01 fold

## CS(=O)(=O)c1ccc(C2=C(c3ccccc3)C(=O)OC2)cc1 [rofecoxib]
Nurr1
  Nurr1 activity 10μM (mean fold activation): 1.02 fold
  Nurr1 activity 30μM (mean fold activation): 0.92 fold
Nur77
  Nur77 activity 10μM (mean fold activation): 0.93 fold
  Nur77 activity 30μM (mean fold activation): 0.91 fold
NOR1
  Nor1 activity 10μM (mean fold activation): 0.95 fold
  Nor1 activity 30μM (mean fold activation): 1.01 fold

## O=C(O)c1ccccc1O [salicylic acid]
Nurr1
  Nurr1 activity 10μM (mean fold activation): 1.08 fold
  Nurr1 activity 30μM (mean fold activation): 1.02 fold
Nur77
  Nur77 activity 10μM (mean fold activation): 1.06 fold
  Nur77 activity 30μM (mean fold activation): 1.02 fold
NOR1
  Nor1 activity 10μM (mean fold activation): 1.01 fold
  Nor1 activity 30μM (mean fold activation): 0.99 fold

## CN1C(C(=O)Nc2ccccn2)=C(O)c2sccc2S1(=O)=O [tenoxicam]
Nurr1
  Nurr1 activity 10μM (mean fold activation): 1.04 fold
  Nurr1 activity 30μM (mean fold activation): 0.99 fold
Nur77
  Nur77 activity 10μM (mean fold activation): 0.98 fold
  Nur77 activity 30μM (mean fold activation): 0.98 fold
NOR1
  Nor1 activity 10μM (mean fold activation): 0.95 fold
  Nor1 activity 30μM (mean fold activation): 0.90 fold

## CC(C(=O)O)c1ccc(C(=O)c2ccccc2)s1 (stereo not shown) [tiaprofenic acid]
Nurr1
  Nurr1 activity 10μM (mean fold activation): 1.52 fold
  Nurr1 activity 30μM (mean fold activation): 1.46 fold
Nurr1; 10 or 30 µM
  Nurr1-dependent reporter activity in primary screen (fold activation): > 1.5 fold
Nur77
  Nur77 activity 10μM (mean fold activation): 1.35 fold
  Nur77 activity 30μM (mean fold activation): 1.38 fold
NOR1
  Nor1 activity 10μM (mean fold activation): 1.37 fold
  Nor1 activity 30μM (mean fold activation): 1.42 fold
Gal4-VP16
  Control experiments on Gal4-VP16 (non-specific reporter effects): non-specific activity

## Cc1c(Cl)cccc1Nc1ccccc1C(=O)O [tolfenamic acid]
Nurr1
  Nurr1 activity 10μM (mean fold activation): 1.18 fold
  Nurr1 activity 30μM (mean fold activation): toxic
Nur77
  Nur77 activity 10μM (mean fold activation): toxic
  Nur77 activity 30μM (mean fold activation): toxic
NOR1
  Nor1 activity 10μM (mean fold activation): toxic
  Nor1 activity 30μM (mean fold activation): toxic

## Cc1ccc(C(=O)c2ccc(CC(=O)O)n2C)cc1 [tolmetin]
Nurr1
  Nurr1 activity 10μM (mean fold activation): 1.08 fold
  Nurr1 activity 30μM (mean fold activation): 1.13 fold
Nur77
  Nur77 activity 10μM (mean fold activation): 1.10 fold
  Nur77 activity 30μM (mean fold activation): 0.97 fold
NOR1
  Nor1 activity 10μM (mean fold activation): 1.08 fold
  Nor1 activity 30μM (mean fold activation): 1.00 fold

## CC(C(=O)O)c1ccc2c(c1)CC(=O)c1ccccc1S2 (stereo not shown) [zaltoprofen]
Nurr1
  Nurr1 activity 10μM (mean fold activation): 0.97 fold
  Nurr1 activity 30μM (mean fold activation): 0.94 fold
Nur77
  Nur77 activity 10μM (mean fold activation): 0.80 fold
  Nur77 activity 30μM (mean fold activation): 0.84 fold
NOR1
  Nor1 activity 10μM (mean fold activation): 0.89 fold
  Nor1 activity 30μM (mean fold activation): 0.84 fold

B1: D22 peptide, fluorescein-labeled (peptide)
peptide: fluorescein-LPYEGSLLLKLLRAPVEEV
notes: source: bought: ThermoFisher Scientific (Life Technologies)
[2]
  binding result: binds

B2: silencing mediator for retinoid and thyroid hormone receptor (SMRT) ID2 peptide, fluorescein-labeled (peptide)
peptide: fluorescein-HASTNMGLEAIIRKALMGKYDQW
notes: also called NCoR-2; source: bought: ThermoFisher Scientific (Life Technologies)
[2]
  binding result: binds

B3: nuclear receptor co-activator 6 (NCoA6, also termed PRIPRAP250) peptide, fluorescein-labeled (peptide)
peptide: fluorescein-VTLTSPLLVNLLQSDISAG
notes: also called TRBP; source: bought: ThermoFisher Scientific (Life Technologies)
[2]
  binding result: binds

B4: nuclear receptor interacting protein 1 (NRIP1, also termed RIP140, interaction motif L6) peptide, fluorescein-labeled (peptide)
peptide: fluorescein-SHQKVTLLQLLLGHKNEEN
notes: also called RIP140L6; source: bought: ThermoFisher Scientific (Life Technologies)
[2]
  binding result: binds

B5: nuclear receptor co-repressor (NCOR) ID1 peptide, fluorescein-labeled (peptide)
peptide: fluorescein-RTHRLITLADHICQIITQDFARN
notes: also called NCoR-1; source: bought: ThermoFisher Scientific (Life Technologies)
[2]
  binding result: binds
